Source: ChEMBL document CHEMBL3877305, “Improved Potency of Indole-Based NorA Efflux Pump Inhibitors: From Serendipity toward Rational Design and Development” (J Med Chem, 2017)
Values after ≈ are worked out from the molar mass of the structure shown.

Experiments:
[1] = molecular target: T1, Quinolone resistance protein NorA (Staphylococcus aureus) (UniProt P0A0J7); assay: Inhibition of Staphylococcus aureus 1199B NorA assessed as inhibition of ethidium bromide efflux at 50 uM measured after 5 mins by fluorometric method relative to control
T1 sequence (whole entry): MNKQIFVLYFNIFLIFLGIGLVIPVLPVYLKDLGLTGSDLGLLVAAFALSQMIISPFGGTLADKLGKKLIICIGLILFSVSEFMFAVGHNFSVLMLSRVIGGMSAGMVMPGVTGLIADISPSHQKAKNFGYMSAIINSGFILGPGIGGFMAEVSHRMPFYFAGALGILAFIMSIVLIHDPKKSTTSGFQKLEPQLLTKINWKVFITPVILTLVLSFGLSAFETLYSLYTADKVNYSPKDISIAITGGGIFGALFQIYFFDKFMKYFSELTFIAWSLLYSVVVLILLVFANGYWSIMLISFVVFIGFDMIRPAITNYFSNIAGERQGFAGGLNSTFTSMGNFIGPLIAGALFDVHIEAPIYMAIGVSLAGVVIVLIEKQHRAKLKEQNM

Staphylococcus aureus = assay: Antibacterial activity against Staphylococcus aureus 1199B by microdilution method; assay type: functional
[2] = molecular target: T2, Quinolone resistance protein NorA (Staphylococcus aureus, UniProt P0A0J7); assay: Inhibition of Staphylococcus aureus 1199B NorA assessed as inhibition of ethidium bromide efflux measured after 5 mins by fluorometric method
T2 sequence (P0A0J7 whole entry): T1 sequence (whole entry)

[3] = Dissociation constant, pKa of the compound; assay type: physicochemical
[4] = Solubility in D2O solution at 25 degC by 1H NMR analysis; assay type: physicochemical
[5] = Metabolic stability in human liver microsomes at 10 uM preincubated for 10 mins followed by NADPH addition measured after 30 mins by HPLC-MS/MS method; assay type: ADME; details: 0.5 h
[6] = molecular target: T1, Quinolone resistance protein NorA (Staphylococcus aureus); assay: Inhibition of Staphylococcus aureus 1199B NorA assessed as potentiation of ciprofloxacin-induced antibacterial activity by checkerboard assay

Structure (SMILES)	inhibition [1]	MIC (Staphylococcus aureus)	IC50 [2]	also measured
CCOC(=O)c1c(C)n(Cc2ccccc2)c2ccc(OCCCCNCc3ccc(Oc4nnnn4-c4ccccc4)c(OC)c3)cc12	101%	> 100 µg/mL	2.02 µM	pKa [3]: 8.2; solubility [4]: < 2 µM; Stability [5]: Stable; fractional inhibitory concentration index (FICI) [6]: 0.25
COc1cc(CNCCO)ccc1Oc1nnnn1-c1ccccc1	< 10%			
CCOC(=O)c1c(C)n(Cc2ccccc2)c2ccc(OCCCN)cc12		> 100 µg/mL		
CCOC(=O)c1c(C)n(Cc2ccccc2)c2ccc(OCCCN3CCN(CCCOc4ccc(F)cc4)CC3)cc12	53.7%			
CCOC(=O)c1c(C)n(Cc2ccccc2)c2ccc(OCCCNCc3ccc(Oc4nnnn4-c4ccccc4)c(OC)c3)cc12	95 to 96.5%	> 100 µg/mL	1.8 to 1.82 µM	pKa [3]: 7.21; solubility [4]: < 2 µM; Stability [5]: Stable; fractional inhibitory concentration index (FICI) [6]: 0.27
CCOC(=O)c1c(C)n(Cc2ccccc2)c2ccc(OCCCNCc3ccc(F)c(OC)c3)cc12	67%	6.3 µg/mL (≈ 12.5 µM)	3.83 µM	
CCOC(=O)c1c(C)n(Cc2ccccc2)c2ccc(OCCCNCc3nnnn3-c3ccccc3)cc12	22.8%			
CCOC(=O)c1c(C)n(Cc2ccccc2)c2ccc(OCCCN3CCCCC3)cc12		> 100 µg/mL		fractional inhibitory concentration index (FICI) [6]: 0.28
CCOC(=O)c1c(C)n(Cc2ccccc2)c2ccc(OCCCNCc3ccccc3)cc12		> 100 µg/mL		
CCOC(=O)c1c(C)n(Cc2ccccc2)c2ccc(OCC(O)CNCC(O)COc3ccc4c(c3)c(C(=O)OCC)c(C)n4Cc3ccccc3)cc12 (stereo not given)	78 to 100%		19.9 µM	
CCOC(=O)c1c(C)n(Cc2ccccc2)c2ccc(OCC(O)CNCc3ccc(Oc4nnnn4-c4ccccc4)c(OC)c3)cc12 (stereo not given)	96.9%	> 100 µg/mL	4.93 µM	fractional inhibitory concentration index (FICI) [6]: 0.13
CCOC(=O)c1c(C)n(Cc2ccccc2)c2ccc(OCCCN3CCN(CCCOc4ccccc4-c4ccccc4)CC3)cc12	12.1%			
OCCCN1CCN(CCCOc2ccccc2-c2ccccc2)CC1	< 10%			
CCOC(=O)c1c(C)n(Cc2ccccc2)c2ccc(OCCN3CCN(CCCOc4ccccc4-c4ccccc4)CC3)cc12	27.1%			
CCOC(=O)c1c(C)n(Cc2ccccc2)c2ccc(OCCN3CCN(CCOc4ccccc4-c4ccccc4)CC3)cc12	24.3 to 50%			
CCOC(=O)c1c(C)n(Cc2ccccc2)c2ccc(OCCNCc3ccc(Oc4nnnn4-c4ccccc4)c(OC)c3)cc12	50.3%			
